Three compounds from patent US20250090562A1, “METHODS, COMPOSITIONS AND USES RELATED TO THE TREATMENT AND PREVENTION OF LEIGH’S SYNDROME” (Stealth BioTherapeutics Inc., priority 2023, published 2025) can be followed below.

Common to all, as to type: cell-based, human
One assay relates to 15-lipoxygenase (15-LO). As to the kind of experiment: 15(S)-HETE ELISA following RSL3 treatment, Leigh fibroblasts. Conditions: 700 nM RSL3, 1 μM compound, 24 h. On the procedure: Samples for the 15(S)-HETE ELISA were generated by the RSL3 cytoprotection assay described above. Healthy or Leigh fibroblasts were resuspended in assay medium, seeded at 200,000 cells per well in a clear, tissue culture-treated, 24-well plate. Cells were incubated at 37° C. for 24 hours. Supernatant was aspirated from each well following the incubation.
Fibroblasts from both a healthy individual and a patient diagnosed with Leigh syndrome were examined (but not all compounds were examined in each cell type). Activation of ferroptosis has been implicated as a driver of epilepsy, which is commonly associated with Leigh syndrome. […] Kahn-Kirby et al. PLOS One. […] As a key regulator of ferroptosis, 15-LO serves as a rational therapeutic target in Leigh syndrome.

Assay [1] deals with rotenone-inhibited Complex I. Nature of the assay: Complex I-bypass assay ((CI)-bypass assay), high-resolution respirometry O2 consumption. Conditions: Leigh (GM03672) fibroblasts, 0.5 μM rotenone, oxygen consumption rate; read-out: EC50 value, Complex I by-pass activity. On the procedure:
All high-resolution respirometry experiments were conducted using the Oroboros O2k-Fluorespirometer (Oroboros, Innsbruck, Austria). The Oroboros O2k-Fluorespirometer was calibrated daily using the air calibration protocol on DatLab 7.4 (Oroboros, Innsbruck, Austria). Prior to each experiment requiring the fluorescence module, the AmpR calibration protocol from DatLab 7.4 was used to calibrate the fluorescence signal. Initial data analysis, including setting of marks, was performed using DatLab 7.4.
Complex I-bypass activity was assessed using HRR to measure O2 consumption. Briefly, Leigh (GM03672) fibroblasts were harvested with trypsin, pelleted at 300×g centrifugation, and resuspended in prewarmed, complete MEM. Cells were added to each chamber via buffer replacement at a concentration of 1-2 million per mL. The chambers were closed to initiate measurement of O2 consumption. The slope negative signal, which is a derivative of O2 consumption, was allowed to stabilize over the course of several minutes. Using a Hamilton syringe to allow for continuous measurement of O2 consumption, glutamate (10 mM final concentration) and malate (0.1 mM final concentration) were added to the closed chamber through the central capillary of the stopper. The slope negative signal was stabilized for several minutes, and rotenone was added at a final concentration of 0.5 μM. One of Compounds 1 to 4 or Vatiquinone was added at increasing concentrations, allowing for several minutes of stabilization of the slope negative signal between titrations. Marks were set at signal plateaus in between titrations. Values were exported and analyzed using GraphPad Prism 9. […] Responsiveness of cells was confirmed with idebenone.
Statistical analysis was performed using GraphPad Prism 9. Complex I-bypass data were fit using nonlinear sigmoidal 4P fit. RET Assay data were analyzed by 2-way ANOVA using a p-value of 0.05.
The Complex 1-bypass assay ((CI)-bypass Assay) evaluates the capacity of compounds to donate electrons into the electron transport chain (ETC) when Complex I is impaired or otherwise deficient. Normally, electrons feed into the ETC through Complex I. In instances where Complex I is impaired, electrons must enter the ETC downstream of Complex I for oxidative phosphorylation (OXPHOS) to occur. Complex I is composed of 46 subunits, encoded by mitochondrial and nuclear genes. Due to its large size, Complex I mutations are a common cause of ETC dysfunction in mitochondrial diseases. Indeed, mutations in the genes that encode subunits for Complex I are important causes of Leigh and Leigh-like syndrome.
Using this assay, the ability of Compounds 1 to 4 and Vatiquinone to bypass rotenone-inhibited Complex I was determined. Rotenone is a widely used Complex I inhibitor and blocks the transfer of electrons from the iron-sulfur complexes on Complex I to ubiquinone. Thus, when rotenone is introduced to cells underdoing routine respiration, a decrease in oxygen consumption is observed, which is indicative of disrupted OXPHOS. The ability of Compounds 1 to 4 and Vatiquinone to “bypass” Complex I and restore OXPHOS is measured by an increase in oxygen consumption rate following addition of the compound to the chamber.
In executing this assay, in each instance, fibroblasts are added to each chamber of the Oroboros Oxygraph-2K (the “O2k”). The O2k generates two traces: 1) total oxygen consumption over time, 2) the rate of oxygen consumption over time (slope negative). Baseline respiration is established for several minutes by allowing the slope negative to stabilize. Rotenone is introduced to each chamber at a final concentration of 0.5 μM. The addition of rotenone is expected to cause a marked reduction of OXPHOS as measured by a decreased rate of oxygen consumption. Then the test article (i.e., in this case one of Compounds 1 to 4 or Vatiquinone) is added to the chamber. […]

Assay [2] relates to Leigh fibroblasts (GM03672). As to the kind of experiment: Mitochondrial membrane potential (TMRM flow cytometry) in RSL3-treated Leigh fibroblasts. Conditions: 1 μM RSL3 with 1 μM compound, 4 h. The protocol: Leigh fibroblasts (GM03672) were seeded in a 24-well, tissue culture-treated plate in complete MEM (MEM+15% FBS+1% penicillin/streptomycin) at a density of 1×10^5 cells per 500 μL and incubated overnight at 37° C. at 5% CO2. Cells were treated for 4 hours at 37° C. with either 1 μM RSL3, 1 μM RSL3 with 1 μM Compound 3 or media for untreated cells. Following the incubation, supernatant was removed and cells were treated with 0.25% trypsin for 5 min at 37° C. Trypsin was neutralized with an equal part MEM. Cells were dislodged with gentle pipetting and pelleted at 300×g for 5 minutes. Pellets were resuspended in 500 μL Fluobrite DMEM and cells were transferred to a 96-well, v-bottom plate. Cells were stained with 20 nM MitoTracker Green and 100 nM tetramethylrhodamine methyl ester (TMRM) Samples were incubated for 25 minutes at 37° C. Each well was mixed immediately prior to analysis to resuspend settled cells. Fluorescence intensity was measured on the BD Accuri C6 Plus Flow Cytometer. A minimum of 10,000 events per sample was collected. Data analysis was performed using FloJo vs. 10. Gating was performed by establishing an initial forward scatter vs. side scatter gate. MitoTracker Green positive, TMRM positive cells were identified through subsequent gating. Median fluorescence intensity (MFI) of TMRM fluorescence was determined. Using GraphPad Prism 10, statistical significance between groups was determined by One-way ANOVA. A p-value of less than 0.05 was considered significant. Results are presented graphically in FIG. 20.

As for `CC1=C(C)C(=O)C(CC[C@@](C)(O)COCCC[Si](C)(C)C)=C(C)C1=O` [Compound 3], the “relative 15-LO inhibition (comparison between test articles)” value (“relative 15-LO inhibition” below) in the assay with 15-lipoxygenase (15-LO) is “roughly equivalent protective effect”. Moreover, in assay [1], the EC50 is about 3.41 µM. The “mitochondrial membrane potential (TMRM MFI), protection” value in assay [2] was “protective of the Leigh fibroblasts from the loss of mitochondrial membrane potential”.

For the compound `CC1=C(C)C(=O)C(CC[C@@](C)(O)CC/C=C(\C)CCC=C(F)F)=C(C)C1=O` [Compound 2], the “relative 15-LO inhibition” value with 15-lipoxygenase (15-LO) is reported as “roughly equivalent protective effect”. The EC50 in assay [1] is about 4.09 µM.

Consider `CC1=C(C)C(=O)C(CC[C@](C)(O)CCCCCCCCC(F)(F)F)=C(C)C1=O` [Compound 4], for which the “relative 15-LO inhibition” value in the assay with 15-lipoxygenase (15-LO) is “roughly equivalent protective effect”. For the same compound, the EC50 in assay [1] was about 8.8 µM. In addition, in assay [2], the “mitochondrial membrane potential (TMRM MFI), protection” value was “protective of the Leigh fibroblasts from the loss of mitochondrial membrane potential”.
